SMILES strings stand for the structures. Where a name gives a salt, the structure may show the parent alone.

The test system of one experiment is Hsp90. Description: IC50 of compounds of the invention, Example B Method 2 (Tables 6-9). Type of experiment: cell-based, human. The following applies: Table 7; Her2 degradation / inhibition of Hsp90; Method 2: MV-4-11 cells, 72 hours, Cell Counting Kit-8; read-out: IC50. (Formazan colour is commonly taken as a measure of viable cells.)
Broadly, the IC50 is the concentration that gives 50% inhibition. Regarding `CCCC(=O)Nc1nnc(-c2cc(C(C)C)c(O)cc2O)n1-c1ccc2c(ccn2C)c1` [Compound 12a, N-(5-(2,4-dihydroxy-5-isopropylphenyl)-4-(1-methyl-1H-indol-5-yl)-4H-1,2,4-triazol-3-yl)butyramide], the IC50 was found to be 1400 nM. Still for that read-out and setting: the figure for `CC(C)c1cc(-c2nnc(NC(=O)c3ccc(F)c(F)c3)n2-c2ccc3c(ccn3C)c2)c(O)cc1O` [Compound 17a, N-(5-(2,4-dihydroxy-5-isopropylphenyl)-4-(1-methyl-1H-indol-5-yl)-4H-1,2,4-triazol-3-yl)-3,4-difluorobenzamide] is 1680 nM.

On to `CC(C)c1cc(-c2nnc(Nc3cccc(N)c3)n2-c2ccc3c(ccn3C)c2)c(O)cc1O` [Compound 6a, 4-(5-(3-aminophenylamino)-4-(1-methyl-1H-indol-5-yl)-4H-1,2,4-triazol-3-yl)-6-isopropylbenzene-1,3-diol], for which the half-inhibitory concentration (IC50) came to 2900 nM. Still for that read-out and setting: the figure for `CC(C)c1cc(-c2nnc(NCc3ccccc3)n2-c2ccc3c(ccn3C)c2)c(O)cc1O` [Compound 3a, 4-Isopropyl-6-[4-(1-methyl-1H-indol-5-yl)-5-benzylamino-4H-[1,2,4]triazol-3-yl]-benzene-1,3-diol] is 35000 nM; for `CC(C)c1cc(-c2nnc(NC(=O)c3ccccc3)n2-c2ccc3c(ccn3C)c2)c(O)cc1O` [Compound 9a, N-(5-(2,4-dihydroxy-5-isopropylphenyl)-4-(1-methyl-1H-indol-5-yl)-4H-1,2,4-triazol-3-yl)benzamide] it is 2600 nM; for `CC(=O)Nc1nnc(-c2cc(C(C)C)c(O)cc2O)n1-c1ccc2c(ccn2C)c1` [Compound 11a, N-(5-(2,4-dihydroxy-5-isopropylphenyl)-4-(1-methyl-1H-indol-5-yl)-4H-1,2,4-triazol-3-yl)acetamide] it is 382 nM. Still for that read-out and setting: the figure for `CC(C)c1cc(-c2nnc(NC(=O)Cc3ccccc3)n2-c2ccc3c(ccn3C)c2)c(O)cc1O` [Compound 16a, N-(5-(2,4-dihydroxy-5-isopropylphenyl)-4-(1-methyl-1H-indol-5-yl)-4H-1,2,4-triazol-3-yl)-2-phenylacetamide] is 1460 nM; for `CC(C)c1cc(-c2nnc(Nc3ccccc3)n2-c2ccc3c(ccn3C)c2)c(O)cc1O` [Compound 1a, 4-Isopropyl-6-[4-(1-methyl-1H-indol-5-yl)-5-phenylamino-4H-[1,2,4]triazol-3-yl]-benzene-1,3-diol] it is 1400 nM; for `CC(C)c1cc(-c2nnc(Nc3ccc4ncccc4c3)n2-c2ccc3c(ccn3C)c2)c(O)cc1O` [Compound 5a, 4-isopropyl-6-(4-(1-methyl-1H-indol-5-yl)-5-(quinolin-6-ylamino)-4H-1,2,4-triazol-3-yl)benzene-1,3-diol] it is 680 nM. Still for that read-out and setting: the figure for `CNc1nnc(-c2cc(C(C)C)c(O)cc2O)n1-c1ccc2c(ccn2C)c1` [Compound 2a, 4-Isopropyl-6-[4-(1-methyl-1H-indol-5-yl)-5-methylamino-4H-[1,2,4]triazol-3-yl]-benzene-1,3-diol] is 3500 nM.

Still in this experiment, the particulars now being: Table 8; Her2 degradation / inhibition of Hsp90; Method 2: MV-4-11 cells, 72 hours, Cell Counting Kit-8; read-out: IC50.
Turning to `CC(C)c1cc(-c2nn(COC(=O)C(N)C(C)C)c(=O)n2-c2ccc3c(ccn3C)c2)c(O)cc1O` (stereo not drawn) [Compound 12b, (3-(2,4-dihydroxy-5-isopropylphenyl)-4-(1-methyl-1H-indol-5-yl)-5-oxo-4,5-dihydro-1H-1,2,4-triazol-1-yl)methyl 2-amino-3-methylbutanoate], the IC50 was 29 nM. On the same count and under the same terms, the value for `CC(C)c1cc(-c2nnc(SSc3nnc(-c4cc(C(C)C)c(O)cc4O)n3-c3ccc(N(C)C)cc3)n2-c2ccc(N(C)C)cc2)c(O)cc1O` [Compound 7b, 6,6′-(5,6-disulfanediylbis(4-(4-(dimethylamino)phenyl)-4H-1,2,4-triazole-5,3-diyl))bis(4-isopropylbenzene-1,3-diol)] was 58 nM; that for `COCCC(=O)Oc1cc(O)c(-c2nnc(OC(=O)CCOC)n2-c2ccc3c(ccn3C)c2)cc1C(C)C` [Compound 18b, 5-hydroxy-2-isopropyl-4-(5-(3-methoxypropanoyloxy)-4-(1-methyl-1H-indol-5-yl)-4H-1,2,4-triazol-3-yl)phenyl 3-methoxypropanoate] was under 100 nM; that for `CC(=O)n1ccc2cc(-n3c(O)nnc3-c3cc(C(C)C)c(O)cc3O)ccc21` [Compound 9b, 1-(5-(3-(2,4-dihydroxy-5-isopropylphenyl)-5-hydroxy-4H-1,2,4-triazol-4-yl)-1H-indol-1-yl)ethanone] was 40 nM. Still for that read-out and setting: the value for `CC(C)c1cc(-c2nn(C(=O)C(N)Cc3ccccc3)c(=O)n2-c2ccc3c(ccn3C)c2)c(OC(=O)C(N)Cc2ccccc2)cc1OC(=O)C(N)Cc1ccccc1` (stereo not drawn) [Compound 17b, 4-(1-(2-amino-3-phenylpropanoyl)-4-(1-methyl-1H-indol-5-yl)-5-oxo-4,5-dihydro-1H-1,2,4-triazol-3-yl)-6-isopropyl-1,3-phenylene bis(2-amino-3-phenylpropanoate) trihydrochloride] was 46 nM; that for `CC(C)c1cc(-c2nn(C(=O)CN)c(=O)n2-c2ccc3c(ccn3C)c2)c(OC(=O)CN)cc1OC(=O)CN` [Compound 15b, 4-(1-(2-aminoacetyl)-4-(1-methyl-1H-indol-5-yl)-5-oxo-4,5-dihydro-1H-1,2,4-triazol-3-yl)-6-isopropyl-1,3-phenylene bis(2-aminoacetate) trihydrochloride] was 79 nM; that for `COCCC(=O)n1ccc2cc(-n3c(O)nnc3-c3cc(C(C)C)c(O)cc3O)ccc21` [Compound 11b, 3-(2,4-dihydroxy-5-isopropylphenyl)-4-(1-(3-methoxypropanoyl)-1H-indol-5-yl)-1H-1,2,4-triazol-5(4H)-one] was under 100 nM. Still for that read-out and setting: the figure for `CCc1cc(-c2nnc(S)n2-c2cccc3ccccc23)c(OC(=O)c2ccccc2)cc1OC(=O)c1ccccc1` [Compound 4b, 4-ethyl-6-(5-mercapto-4-(naphthalen-1-yl)-4H-1,2,4-triazol-3-yl)-1,3-phenylene dibenzoate] is over 2000 nM; for `CC(N)C(=O)Oc1cc(OC(=O)C(C)N)c(C(C)C)cc1-c1nn(C(=O)C(C)N)c(=O)n1-c1ccc2c(ccn2C)c1` (stereo not drawn) [Compound 16b, 4-(1-(2-aminopropanoyl)-4-(1-methyl-1H-indol-5-yl)-5-oxo-4,5-dihydro-1H-1,2,4-triazol-3-yl)-6-isopropyl-1,3-phenylene bis(2-aminopropanoate) trihydrochloride] it is 56 nM.

Still in this experiment, the particulars now being: Table 9; Her2 degradation / inhibition of Hsp90; Method 2: MV-4-11 cells, 72 hours, Cell Counting Kit-8; dihydrochloride; read-out: IC50 Range.
In the case of `CC(C)c1cc(-c2nnc(O)n2-c2ccc(N(C)C)nc2)c(O)cc1O` [Compound 7d, 4-(4-(6-(dimethylamino)pyridin-3-yl)-5-hydroxy-4H-1,2,4-triazol-3-yl)-6-isopropylbenzene-1,3-diol dihydrochloride], the IC50 is 47 nM.

For `CC(C)c1cc(-c2nnc(O)n2-c2ccc(N3CCN(C)CC3)nc2)c(O)cc1O` [Compound 9d, 4-(5-hydroxy-4-(6-(4-methylpiperazin-1-yl)pyridin-3-yl)-4H-1,2,4-triazol-3-yl)-6-isopropylbenzene-1,3-diol dihydrochloride], the half-maximal inhibitory concentration (IC50) was 220 nM.

Still in this experiment, the particulars now being: Table 9; Her2 degradation / inhibition of Hsp90; Method 2: MV-4-11 cells, 72 hours, Cell Counting Kit-8; hydrochloride; read-out: IC50 Range.
Regarding `CC(C)c1cc(-c2nnc(O)n2-c2ccc(N(C)C)c(S(N)(=O)=O)c2)c(O)cc1O` [Compound 13d, 5-(3-(2,4-dihydroxy-5-isopropylphenyl)-5-hydroxy-4H-1,2,4-triazol-4-yl)-2-(dimethylamino)benzene sulfonamide hydrochloride], the IC50 was determined as 207 nM.

Still in this experiment, the particulars now being: Table 9; Her2 degradation / inhibition of Hsp90; Method 2: MV-4-11 cells, 72 hours, Cell Counting Kit-8; read-out: IC50 Range.
For the compound `CC(C)c1cc(-c2nnc(O)n2-c2ccc(N(C)CC(=O)O)nc2)c(O)cc1O` [Compound 4d, 2-(N-(5-(3-(2,4-dihydroxy-5-isopropylphenyl)-5-oxo-1H-1,2,4-triazol-4(5H)-yl)pyridin-2-yl)-N-methylamino)acetic acid], the IC50 was determined as 330 nM. Turning to `CC(C)c1cc(-c2nnc(S)n2-c2cccc(S(N)(=O)=O)c2)c(O)cc1O` [Compound 14d, 3-(3-(2,4-dihydroxy-5-isopropylphenyl)-5-mercapto-4H-1,2,4-triazol-4-yl)benzenesulfonamide], the IC50 amounted to 336 nM.

In the case of `CC(C)c1cc(-c2nnc(O)n2-c2ccc(N3CCN(C)CC3)nc2)c(O)cc1O` [Compound 8d, 4-(5-hydroxy-4-(6-(4-methylpiperazin-1-yl)pyridin-3-yl)-4H-1,2,4-triazol-3-yl)-6-isopropylbenzene-1,3-diol], the IC50 was found to be 243 nM.

Regarding `CC(C)c1cc(-c2nnc(O)n2-c2cccc(S(=O)(=O)N(C)CCN(C)C)c2)c(O)cc1O` [Compound 10d, 3-(3-(2,4-dihydroxy-5-isopropylphenyl)-5-hydroxy-4H-1,2,4-triazol-4-yl)-N-(2-(dimethylamino)ethyl)-N-methylbenzenesulfonamide], the IC50 was over 330 nM. The same measure, in the same setting: the figure for `CC(C)c1cc(-c2nnc(O)n2-c2ccc(N(C)C)nc2)c(O)cc1O` [Compound 6d, 4-(4-(6-(dimethylamino)pyridin-3-yl)-5-hydroxy-4H-1,2,4-triazol-3-yl)-6-isopropylbenzene-1,3-diol] is 58 nM. On to `CC(C)c1cc(-c2nnc(O)n2-c2ccc(N(C)C)c(S(N)(=O)=O)c2)c(O)cc1O` [Compound 12d, 5-(3-(2,4-dihydroxy-5-isopropylphenyl)-5-hydroxy-4H-1,2,4-triazol-4-yl)-2-(dimethylamino)benzene sulfonamide], for which the IC50 was found to be 336 nM.

`CC(C)c1cc(-c2nnc(O)n2-c2ccc(OCCN3CCOCC3)nc2)c(O)cc1O` [Compound 20d, 4-(5-hydroxy-4-(6-(2-morpholinoethoxy)pyridin-3-yl)-4H-1,2,4-triazol-3-yl)-6-isopropylbenzene-1,3-diol]: the 50% inhibitory concentration (IC50) stood at 114 nM. The same measure, in the same setting: the value for `COCCN(C)c1ccc(-n2c(O)nnc2-c2cc(C(C)C)c(O)cc2O)cn1` [Compound 1d, 4-(4-(6-(N-(2-methoxyethyl)-N-methylamino)pyridin-3-yl)-5-hydroxy-4H-1,2,4-triazol-3-yl)-6-isopropylbenzene-1,3-diol] was 30 nM.

These data come from patent US8835464B2, “Triazole compounds that modulate HSP90 activity” (Synta Pharmaceuticals Corp., priority 2006, dated 2014).
